Reference: patent US8637496B2, “Compounds having a monogalactosyldiacylglycerol synthase inhibitory activity as herbicide or algaecide, herbicide and algaecide compositions” (Commissariat a l'Energie Atomique, priority 2007, dated 2014)
Structures can show the parent of a compound that is named as a salt. Where two headings read alike, the source gives them in different places.

Target: T1, MGDG synthase in isolated spinach chloroplast envelope membranes (Spinacia oleracea, UniProt Q9SM44)
T1 construct: envelope membranes purified from the lysate by sucrose centrifugation gradient; from tissue; host or cells: envelope membranes of chloroplasts from spinach leaves
T1 sequence (Q9SM44 99-522): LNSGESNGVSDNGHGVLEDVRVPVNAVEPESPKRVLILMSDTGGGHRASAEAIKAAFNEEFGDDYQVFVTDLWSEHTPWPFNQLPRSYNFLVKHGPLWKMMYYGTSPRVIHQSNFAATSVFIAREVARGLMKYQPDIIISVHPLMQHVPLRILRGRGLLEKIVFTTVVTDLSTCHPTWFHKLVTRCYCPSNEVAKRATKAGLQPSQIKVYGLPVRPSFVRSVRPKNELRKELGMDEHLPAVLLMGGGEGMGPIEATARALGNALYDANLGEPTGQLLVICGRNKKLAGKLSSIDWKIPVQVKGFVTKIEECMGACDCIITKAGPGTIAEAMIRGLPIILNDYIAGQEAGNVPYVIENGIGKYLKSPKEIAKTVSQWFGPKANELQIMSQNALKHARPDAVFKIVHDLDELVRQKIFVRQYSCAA
Experiment: MGDG synthase activity in envelope membrane fractions isolated from spinach chloroplasts
Format: biochemical
Description: All the operations have been carried out as described in the article by Maréchal, E. et al., J. Biol. Chem., 1995, 270, 5714-5722. Crude chloroplasts were obtained from 3-4 kg of spinach leaves and purified by isopycnic centrifugation using Percoll gradients. Purified intact chloroplasts have then been lysed in hypotonic medium and envelope membranes purified from the lysate by sucrose centrifugation gradient as described in the article by Douce, R. and Joyard, J., (1982) in Methods in Chloroplast Molecular Biology (Edelman, M., Hallick R and Chua N H eds), pp 239-256, Elsevier Science Publishers B.V. Amsterdam.
MGDG synthase activity was assayed as described in the article by Maréchal et al. (1995).

[1] = Table 1, obtained in the same manner as FIG. 4, read-out: Inhibitory effect on MGDG synthesis in isolated spinach chloroplast envelope membranes

Compound	IC50 [1]	IC50
COc1cccc(CN(Cc2ccccc2)[C@@H](C)COC(=O)N2CCC(n3c(=O)[nH]c4ccccc43)CC2)c1 [Compound 54, (S)-2-(benzyl(3-methoxybenzyl)amino)propyl 4-(2-oxo-2,3-dihydro-1H-benzo[d]imidazol-1-yl)piperidine-1-carboxylate hydrochloride]	25 µM	–
C[C@@H](COC(=O)N1CCC(n2c(=O)[nH]c3ccccc32)CC1)N(Cc1ccccc1)Cc1cccc(Oc2ccccc2)c1 [Compound 55, (S)-2-(benzyl(3-phenoxybenzyl)amino)propyl 4-(2-oxo-2,3-dihydro-1H-benzo[d]imidazol-1-yl)piperidine-1-carboxylate hydrochloride]	40 µM	–
C[C@@H](COC(=O)N1CCC(n2c(=O)[nH]c3ccccc32)CC1)N(Cc1ccccc1)Cc1cccc(Cl)c1 [Compound 56, (S)-2-(benzyl(3-chlorobenzyl)amino)propyl 4-(2-oxo-2,3-dihydro-1H-benzo[d]imidazol-1-yl)piperidine-1-carboxylate hydrochloride]	15 µM	–
O=C(OCCN(Cc1ccccc1)Cc1ccnc2ccccc12)N1CCC(n2c(=O)[nH]c3ccccc32)CC1 [Compound 57, 2-(benzyl(quinolin-4-ylmethyl)amino)ethyl 4-(2-oxo-2,3-dihydro-1H-benzo[d]imidazol-1-yl)piperidine-1-carboxylate hydrochloride]	75 µM	–
O=C(OCCCN(Cc1ccccc1)Cc1cccnc1)N1CCC(n2c(=O)[nH]c3ccccc32)CC1 [Compound 58, 3-(benzyl(pyridin-3-ylmethyl)amino)propyl 4-(2-oxo-2,3-dihydro-1H-benzo[d]imidazol-1-yl)piperidine-1-carboxylate hydrochloride]	17 µM	–
O=C(OCCCN(Cc1ccccc1)Cc1ccccn1)N1CCC(n2c(=O)[nH]c3ccccc32)CC1 [Compound 59, 3-(benzyl(pyridin-2-ylmethyl)amino)propyl 4-(2-oxo-2,3-dihydro-1H-benzo[d]imidazol-1-yl)piperidine-1-carboxylate hydrochloride]	15 µM	–
C[C@@H](COC(=O)N1CCC(n2c(=O)[nH]c3ccccc32)CC1)N(Cc1ccccc1)Cc1cccc(OCc2ccccc2)c1 [Compound 60, (S)-2-(benzyl(3-(benzyloxy)benzyl)amino)propyl 4-(2-oxo-2,3-dihydro-1H-benzo[d]imidazol-1-yl)piperidine-1-carboxylate hydrochloride]	12 µM	–
C[C@@H](COC(=O)N1CCC(n2c(=O)[nH]c3ccccc32)CC1)N(Cc1ccccc1)Cc1cc2ccccc2c2ccccc12 [Compound 61, (S)-2-(benzyl(phenanthren-9-ylmethyl)amino)propyl 4-(2-oxo-2,3-dihydro-1H-benzo[d]imidazol-1-yl)piperidine-1-carboxylate hydrochloride]	–	25 µM
C[C@@H](COC(=O)N1CCC(n2c(=O)[nH]c3ccccc32)CC1)N(Cc1ccccc1)Cc1cccc2ccccc12 [Compound 62, (S)-2-(benzyl(naphthalen-1-ylmethyl)amino)propyl 4-(2-oxo-2,3-dihydro-1H-benzo[d]imidazol-1-yl)piperidine-1-carboxylate hydrochloride]	25 µM	–
C[C@@H](COC(=O)N1CCC(n2c(=O)[nH]c3ccccc32)CC1)N(Cc1ccccc1)Cc1cccs1 [Compound 63, (S)-2-(benzyl(thiophen-2-ylmethyl)amino)propyl 4-(2-oxo-2,3-dihydro-1H-benzo[d]imidazol-1-yl)piperidine-1-carboxylate hydrochloride]	30 µM	–
C[C@@H](COC(=O)N1CCC(n2c(=O)[nH]c3ccccc32)CC1)N(Cc1ccccc1)Cc1ccccn1 [Compound 64, (S)-2-(benzyl(pyridin-2-ylmethyl)amino)propyl 4-(2-oxo-2,3-dihydro-1H-benzo[d]imidazol-1-yl)piperidine-1-carboxylate hydrochloride]	35 µM	–
CC(C)(C)OC(=O)N(CCOC(=O)N1CCC(n2c(=O)[nH]c3ccccc32)CC1)Cc1ccccc1 [Compound 65, 2-(benzyl(tert-butoxycarbonyl)amino)ethyl 4-(2-oxo-2,3-dihydro-1H-benzo[d]imidazol-1-yl)piperidine-1-carboxylate]	12 µM	–
O=C(OCCCN(Cc1ccccc1)Cc1cccs1)N1CCC(n2c(=O)[nH]c3ccccc32)CC1 [Compound 66, 3-(benzyl(thiophen-2-ylmethyl)amino)propyl 4-(2-oxo-2,3-dihydro-1H-benzo[d]imidazol-1-yl)piperidine-1-carboxylate hydrochloride]	50 µM	–
O=C(OCCCN(Cc1ccccc1)Cc1ccc(F)cc1)N1CCC(n2c(=O)[nH]c3ccccc32)CC1 [Compound 67, 3-(benzyl(4-fluorobenzyl)amino)propyl 4-(2-oxo-2,3-dihydro-1H-benzo[d]imidazol-1-yl)piperidine-1-carboxylate hydrochloride]	12 µM	–
COc1cccc(CN(CCCOC(=O)N2CCC(n3c(=O)[nH]c4ccccc43)CC2)Cc2ccccc2)c1 [Compound 68, 3-(benzyl(3-methoxybenzyl)amino)propyl 4-(2-oxo-2,3-dihydro-1H-benzo[d]imidazol-1-yl)piperidine-1-carboxylate hydrochloride]	80 µM	–
O=C(OCCCN(Cc1ccccc1)Cc1cccc(Cl)c1)N1CCC(n2c(=O)[nH]c3ccccc32)CC1 [Compound 69, 3-(benzyl(3-chlorobenzyl)amino)propyl 4-(2-oxo-2,3-dihydro-1H-benzo[d]imidazol-1-yl)piperidine-1-carboxylate hydrochloride]	30 µM	–
O=C(OCCCN(Cc1ccccc1)Cc1cccc2ccccc12)N1CCC(n2c(=O)[nH]c3ccccc32)CC1 [Compound 70, 3-(benzyl(naphthalen-1-ylmethyl)amino)propyl 4-(2-oxo-2,3-dihydro-1H-benzo[d]imidazol-1-yl)piperidine-1-carboxylate hydrochloride]	60 µM	–
O=C(OCCCN(Cc1ccccc1)Cc1ccnc2ccccc12)N1CCC(n2c(=O)[nH]c3ccccc32)CC1 [Compound 71, 3-(benzyl(quinolin-4-ylmethyl)amino)propyl 4-(2-oxo-2,3-dihydro-1H-benzo[d]imidazol-1-yl)piperidine-1-carboxylate hydrochloride]	50 µM	–
Cn1c(CN(CCCOC(=O)N2CCC(n3c(=O)[nH]c4ccccc43)CC2)Cc2ccccc2)cc2ccccc21 [Compound 72, 3-(benzyl((1-methyl-1H-indol-2-yl)methyl)amino)propyl 4-(2-oxo-2,3-dihydro-1H-benzo[d]imidazol-1-yl)piperidine-1-carboxylate hydrochloride]	50 µM	–
O=C(OCCCN(Cc1ccccc1)Cc1cccc(Oc2ccccc2)c1)N1CCC(n2c(=O)[nH]c3ccccc32)CC1 [Compound 73, 3-(benzyl(3-phenoxybenzyl)amino)propyl 4-(2-oxo-2,3-dihydro-1H-benzo[d]imidazol-1-yl)piperidine-1-carboxylate hydrochloride]	15 µM	–
O=C(OCCN(Cc1ccccc1)Cc1ccc(Cl)cc1)N1CCC(n2c(=O)[nH]c3ccccc32)CC1 [Compound 74, 2-(benzyl(4-chlorobenzyl)amino)ethyl 4-(2-oxo-2,3-dihydro-1H-benzo[d]imidazol-1-yl)piperidine-1-carboxylate]	8 µM	–
COc1ccccc1CN(CCOC(=O)N1CCC(n2c(=O)[nH]c3ccccc32)CC1)Cc1ccccc1 [Compound 75, 2-(benzyl(2-methoxybenzyl)amino)ethyl 4-(2-oxo-2,3-dihydro-1H-benzo[d]imidazol-1-yl)piperidine-1-carboxylate]	10 µM	–
O=C(OCCN(Cc1ccccc1)Cc1ccccc1OCc1ccccc1)N1CCC(n2c(=O)[nH]c3ccccc32)CC1 [Compound 76, 2-(benzyl(2-(benzyloxy)benzyl)amino)ethyl 4-(2-oxo-2,3-dihydro-1H-benzo[d]imidazol-1-yl)piperidine-1-carboxylate]	20 µM	–
O=C(OCCN(Cc1ccccc1)Cc1ccc(OCc2ccccc2)cc1)N1CCC(n2c(=O)[nH]c3ccccc32)CC1 [Compound 77, 2-(benzyl(4-(benzyloxy)benzyl)amino)ethyl 4-(2-oxo-2,3-dihydro-1H-benzo[d]imidazol-1-yl)piperidine-1-carboxylate]	30 µM	–
O=C(OCCN(Cc1ccccc1)Cc1c(F)cccc1F)N1CCC(n2c(=O)[nH]c3ccccc32)CC1 [Compound 78, 2-(benzyl(2,6-difluorobenzyl)amino)ethyl 4-(2-oxo-2,3-dihydro-1H-benzo[d]imidazol-1-yl)piperidine-1-carboxylate]	8 µM	–
C[C@@H](COC(=O)N1CCC(n2c(=O)[nH]c3ccccc32)CC1)N(Cc1ccccc1)Cc1ccco1 [Compound 79, (S)-2-(benzyl(furan-2-ylmethyl)amino)propyl 4-(2-oxo-2,3-dihydro-1H-benzo[d]imidazol-1-yl)piperidine-1-carboxylate]	25 µM	–
O=C(OCCCN(Cc1ccccc1)Cc1ccoc1)N1CCC(n2c(=O)[nH]c3ccccc32)CC1 [Compound 80, 3-(benzyl(furan-3-ylmethyl)amino)propyl 4-(2-oxo-2,3-dihydro-1H-benzo[d]imidazol-1-yl)piperidine-1-carboxylate]	50 µM	–
